Measured values taken from PubChem BioAssay (NCI).
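Cultured in 96-well plates, cells were exposed to test compound for 48 hours across five concentrations. The concentration for full growth arrest is given as TGI.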

Assays:
Experiment in all cases: NCI-60 cell line screen, 48 h
A498 renal = test system: A498 renal
HCT-116 colon = test system: HCT-116 colon
HCT-15 colon = test system: HCT-15 colon
HT29 colon = test system: HT29 colon
MALME-3M melanoma = test system: MALME-3M melanoma
MDA-MB-231 breast = test system: MDA-MB-231 breast
NCI-H23 lung = test system: NCI-H23 lung
NCI-H460 lung = test system: NCI-H460 lung
OVCAR-3 ovarian = test system: OVCAR-3 ovarian
OVCAR-5 ovarian = test system: OVCAR-5 ovarian
RXF 393 renal = test system: RXF 393 renal
SF-268 CNS = test system: SF-268 CNS
SF-539 CNS = test system: SF-539 CNS
SK-MEL-2 melanoma = test system: SK-MEL-2 melanoma
SK-MEL-28 melanoma = test system: SK-MEL-28 melanoma
SN12C renal = test system: SN12C renal
SR leukemia = test system: SR leukemia
U251 CNS = test system: U251 CNS
UACC-62 melanoma = test system: UACC-62 melanoma
NCI-H522 lung = test system: NCI-H522 lung

CNC(=S)N=Nc1c(O)n(CN2CCOCC2)c2ccc([N+](=O)[O-])cc12
TGI (A498 renal): 66.8 µM | TGI (HCT-116 colon): 28.7 µM | TGI (HCT-15 colon): 26.6 µM | TGI (HT29 colon): > 100 µM | TGI (MALME-3M melanoma): 43.3 µM | TGI (MDA-MB-231 breast): 25 µM | TGI (NCI-H23 lung): 32.2 µM | TGI (NCI-H460 lung): 75 µM | TGI (OVCAR-3 ovarian): 34.5 µM | TGI (OVCAR-5 ovarian): 70.5 µM | TGI (RXF 393 renal): 30 µM | TGI (SF-268 CNS): 47.5 µM | TGI (SF-539 CNS): 33.1 µM | TGI (SK-MEL-2 melanoma): 21.2 µM | TGI (SK-MEL-28 melanoma): 54.8 µM | TGI (SN12C renal): 38.5 µM | TGI (SR leukemia): > 100 µM | TGI (U251 CNS): 37.6 µM | TGI (UACC-62 melanoma): 33.3 µM

COc1cc(N=Nc2cccc(S(=O)(=O)O)c2)ccc1N=Nc1ccc(/C=C/c2ccc(-n3on3-c3ccc(/C=C/c4ccc(N=Nc5ccc(N=Nc6cccc(S(=O)(=O)O)c6)cc5OC)cc4S(=O)(=O)O)c(S(=O)(=O)O)c3)cc2S(=O)(=O)O)c(S(=O)(=O)O)c1
TGI (A498 renal): > 100 µM | TGI (HCT-116 colon): > 100 µM | TGI (HCT-15 colon): > 100 µM | TGI (HT29 colon): > 100 µM | TGI (MALME-3M melanoma): > 100 µM | TGI (NCI-H23 lung): > 100 µM | TGI (NCI-H460 lung): > 100 µM | TGI (NCI-H522 lung): > 100 µM | TGI (OVCAR-3 ovarian): > 100 µM | TGI (OVCAR-5 ovarian): > 100 µM | TGI (RXF 393 renal): > 100 µM | TGI (SF-268 CNS): > 100 µM | TGI (SF-539 CNS): > 100 µM | TGI (SK-MEL-2 melanoma): > 100 µM | TGI (SK-MEL-28 melanoma): > 100 µM | TGI (SN12C renal): > 100 µM | TGI (U251 CNS): > 100 µM | TGI (UACC-62 melanoma): > 100 µM

COc1ccc(/C(Cl)=C(\C=O)c2ccc(OC)c(OC)c2)cc1
TGI (A498 renal): 98.8 µM | TGI (HCT-15 colon): > 100 µM | TGI (HT29 colon): > 100 µM | TGI (MALME-3M melanoma): > 100 µM | TGI (NCI-H23 lung): > 100 µM | TGI (NCI-H460 lung): > 100 µM | TGI (NCI-H522 lung): 85.3 µM | TGI (OVCAR-3 ovarian): > 100 µM | TGI (SF-268 CNS): > 100 µM | TGI (SF-539 CNS): 58.5 µM | TGI (SK-MEL-2 melanoma): 76.6 µM | TGI (SK-MEL-28 melanoma): > 100 µM | TGI (SN12C renal): > 100 µM | TGI (U251 CNS): > 100 µM | TGI (UACC-62 melanoma): > 100 µM

O=C(c1ccccc1)c1c(-c2ccccc2)n(-c2ccccc2)[nH]c(=O)c1=O
TGI (A498 renal): > 100 µM | TGI (HCT-116 colon): > 100 µM | TGI (HCT-15 colon): > 100 µM | TGI (HT29 colon): > 100 µM | TGI (MALME-3M melanoma): > 100 µM | TGI (MDA-MB-231 breast): 84.9 µM | TGI (NCI-H23 lung): > 100 µM | TGI (NCI-H460 lung): > 100 µM | TGI (NCI-H522 lung): 38.3 µM | TGI (OVCAR-3 ovarian): > 100 µM | TGI (OVCAR-5 ovarian): > 100 µM | TGI (SF-268 CNS): > 100 µM | TGI (SF-539 CNS): 46.8 µM | TGI (SK-MEL-2 melanoma): 65.7 µM | TGI (SK-MEL-28 melanoma): > 100 µM | TGI (SN12C renal): > 100 µM | TGI (SR leukemia): > 100 µM | TGI (U251 CNS): > 100 µM | TGI (UACC-62 melanoma): 75.5 µM

O=C(c1cccs1)N(C(=O)N1CCN(c2ccccc2)CC1)S(=O)(=O)c1ccccc1
TGI (A498 renal): > 100 µM | TGI (HCT-116 colon): 38.6 µM | TGI (HCT-15 colon): 75.4 µM | TGI (HT29 colon): > 100 µM | TGI (MALME-3M melanoma): 42.1 µM | TGI (MDA-MB-231 breast): 51.6 µM | TGI (NCI-H23 lung): 59.5 µM | TGI (NCI-H460 lung): 97.3 µM | TGI (NCI-H522 lung): 34.2 µM | TGI (OVCAR-3 ovarian): > 100 µM | TGI (OVCAR-5 ovarian): 55.7 µM | TGI (SF-268 CNS): 80.6 µM | TGI (SF-539 CNS): 35.2 µM | TGI (SK-MEL-2 melanoma): 36.3 µM | TGI (SK-MEL-28 melanoma): 56.3 µM | TGI (SN12C renal): 35.1 µM | TGI (SR leukemia): 49.3 µM | TGI (U251 CNS): 33.3 µM | TGI (UACC-62 melanoma): 33.8 µM

CC1CC[C@@]2(OC1)OC1C[C@H]3[C@@H]4CC[C@H]5CC(OC6OC(CO)C(O)C(OC7OC(CO)C(OC8OC(CO)C(O)C(OC9OC(CO)C(O)C(O)C9O)C8OC8OC(CO)C(O)C(O)C8O)C(O)C7O)C6O)[C@H](O)CC5(C)[C@H]4CCC3(C)C1[C@@H]2C (stereo not given in full)
TGI (A498 renal): 3.16 µM | TGI (HCT-116 colon): 11.5 µM | TGI (HCT-15 colon): 19.3 µM | TGI (HT29 colon): 11.1 µM | TGI (MALME-3M melanoma): 15.1 µM | TGI (MDA-MB-231 breast): 5.87 µM | TGI (NCI-H23 lung): 12.7 µM | TGI (NCI-H460 lung): 15.5 µM | TGI (NCI-H522 lung): 5.35 µM | TGI (OVCAR-3 ovarian): 1.93 µM | TGI (OVCAR-5 ovarian): 12.9 µM | TGI (RXF 393 renal): 3.27 µM | TGI (SF-268 CNS): 11.3 µM | TGI (SF-539 CNS): 6.76 µM | TGI (SK-MEL-2 melanoma): 9.78 µM | TGI (SK-MEL-28 melanoma): 14.5 µM | TGI (SN12C renal): 9.03 µM | TGI (SR leukemia): 2.98 µM | TGI (U251 CNS): 9.43 µM | TGI (UACC-62 melanoma): 16.6 µM
